# Experimental data as given in US20080300135A1, “5-Alkyl-7-Amino-6-Heteroaryl-1,2,4-Triazolo[1,5-A]Pyrimidine Compounds and Their Use for Controlling Harmful Fungi” (BASF Aktiengesellschaft, priority 2005, published 2008).
# What was measured:
# [1] = test system: Puccinia recondita; assay: Curative activity against brown rust of wheat (greenhouse test); assay type: in vivo; conditions: 250 ppm, curative spray on wheat seedlings cv. Kanzler, 7 days; untreated control 90% infected
# Experimental: The active compounds were prepared separately as a stock solution with 25 mg of active compound which was made up to 10 ml with a mixture of acetone and/or DMSO and the emulsifier Uniperol® EL (wetting agent having emulsifying and dispersing action based on ethoxylated alkylphenols) in a solvent/emulsifier volume ratio of 99 to 1. The solution was then made up to 100 ml with water. This stock solution was diluted to the active compound concentration stated below using the solvent/emulsifier/water mixture described.
# Example No. 1—Curative activity against brown rust of wheat caused by Puccinia recondita
# Leaves of potted wheat seedlings of the cultivar “Kanzler” were inoculated with a spore suspension of brown rust (Puccinia recondita). The pots were then placed in a chamber with high atmospheric humidity (90 to 95%) and 20 to 22° C. for 24 hours. During this time, the spores germinated and the germ tubes penetrated into the leaf tissue. The next day, the infected plants were sprayed to runoff point with the above-described active compound solution at the active compound concentration stated below. After the spray coating had dried on, the test plants were cultivated in a greenhouse at temperatures between 20 and 22° C. and at 65 to 70% relative atmospheric humidity for 7 days. The extent of the rust fungus development on the leaves was then determined.
# [2] = test system: Pyricularia oryzae; assay type: cell-based; conditions: 125 ppm, day 7 after inoculation, absorption 405 nm, control = 100%
smiles,measurement,setting,value
"Cc1cc(C)n(-c2c(C)nc3ncnn3c2N2CCC(C)CC2)n1 [Compound C-1, 6-(3,5-Dimethylpyrazol-1-yl)-5-methyl-7-(4-methylpiperidin-1-yl)-[1,2,4]-triazolo[1,5-a]pyrimidin]",infection,[1],10%
same,relative growth,[2],0%
